Measurements published in patent US20220135663A1, “Method of treatment of Chronic Low Back Pain” (Pfizer Inc., priority 2019, published 2022).

Experiments:
[1] = test system: adult patients with chronic low back pain; assay: Study 1059, Phase 3: efficacy (LBPI, RMDQ) in chronic low back pain; format: in vivo, human; conditions: 100-300 mg daily oral
Method: The Low Back Pain Intensity (LBPI) measure is assessed with an 11-point numeric rating scale ranging from 0 (no pain) to 10 (worst possible pain). The LBPI score can be the daily average LBPI score.
The Roland Morris Disability Questionnaire (RMDQ) is an index of how well subjects with low back pain are able to function with regard to daily activities (Roland M, Fairbank. The Roland-Morris Questionnaire and the Oswestry Disability Questionnaire. Spine. 2000; 25 (4)3115-3124). It is a low back pain-specific assessment of physical function with scores ranging from 0 to 24 (lower scores indicate better function).
(§1) Patients were also required to have documented history of previous inadequate treatment response to at least 3 different categories of agents commonly used and generally considered effective for the treatment of chronic low back pain. Patients were required to discontinue all medications for the treatment of chronic low back pain during the primary efficacy assessment period (up to Week 16).
Approximately 1800 patients were planned to be randomized initially in a 2:2:2:3 ratio to 1 of 4 following treatment groups:
1. Placebo administered SC at an 8-week interval plus placebo matching tramadol PR up to Week 16. At the Week 16 visit, patients in this group were switched in a blinded fashion in a 1:1 ratio to either tanezumab 5 mg or tanezumab 10 mg administered SC at an 8 week interval plus placebo matching tramadol PR to Week 56;
2. Tanezumab 5 mg SC administered at an 8-week interval plus placebo matching tramadol PR to Week 56;
3. Tanezumab 10 mg SC administered at an 8-week interval plus placebo matching tramadol PR to Week 56;
4. Oral tramadol PR 100-300 mg daily plus placebo administered SC at an 8-week interval to Week 56.
To achieve the initial randomization and intended re-randomization at Week 16 for placebo patients, a randomization ratio 1:1:2:2:3 for placebo→tanezumab 5 mg (at Week 16), placebo→tanezumab 10 mg (at Week 16), tanezumab 5 mg, tanezumab 10 mg, and tramadol PR was used at the beginning of the trial.
Table 2 summarizes the requirements for analgesic medication usage prior to Screening and the requirements for LBPI and Patient's Global Assessment (PGA) of CLBP. The current study enrolled patients who were more refractory to standard of care treatments for CLBP and had higher LBPI scores at Baseline.

[2] = test system: adult patients with chronic low back pain; assay: Study 1059: adverse events and adjudicated joint safety; format: in vivo, human
From the text: For subjects who are identified with a possible or probable joint event (i.e., rapidly progressive osteoarthritis, subchondral insufficiency fractures, spontaneous osteonecrosis of the knee (SPONK), primary osteonecrosis or pathological fracture) and subjects undergoing total joint replacement for any reason, all images and other source documentation may be provided to the blinded Adjudication Committee for review and adjudication of the event. The Adjudication Committee's assessment of the event may represent the final classification of the event.
as §1

[3] = test system: subjects with chronic low back pain (CLBP); assay: Study 1063, Phase 3 in Japan: efficacy (LBPI, RMDQ) in chronic low back pain; format: in vivo, human; conditions: 100 mg BID
Method: Patients received a total of seven SC injections, separated by 8 weeks (tanezumab or
Treatment groups were as follows: 1. […] Placebo for tanezumab SC and celecoxib BID.
The Intent-to-Treat (ITT) analysis set included all patients who were randomized and received at least one dose of SC study medication (either tanezumab or placebo). This analysis set was primary for all efficacy endpoints, which were analyzed according to randomization assignment, and was labeled as the ‘ITT population’.

[4] = test system: subjects with chronic low back pain (CLBP); assay: Study 1063: adverse events and adjudicated joint safety
Method: This second study (termed “Study 1063) was a randomized, double-blind, active-controlled, multicenter, parallel-group Phase 3 study in Japan to evaluate the safety and efficacy of tanezumab when administered by SC injection for up to 56 weeks in subjects with chronic low back pain (CLBP). […] Patients were also required to be experiencing some benefit from their current stable dose regimen of oral therapy of NSAID (celecoxib 200 mg/day [100 mg BID], loxoprofen 120 to 180 mg/day or meloxicam 5 to 15 mg/day) treatment, but still required additional pain relief at screening. […] Patients with a diagnosis of osteoarthritis of the knee or hip as defined by the American College of Rheumatology combined clinical and radiographic criteria or who had Kellgren Lawrence Grade ≥2 radiographic evidence of hip osteoarthritis or Kellgren Lawrence Grade ≤3 radiographic evidence of knee osteoarthritis were excluded.
Treatment groups were as follows: 1. Tanezumab 5 mg SC and placebo for celecoxib BID; 2. Tanezumab 10 mg SC and placebo for celecoxib BID; 3. Placebo for tanezumab SC and celecoxib BID.
This study was designed with a total (post-randomization) duration of 80 weeks and consisted of three periods: (1) a Screening period (up to a maximum of 37 days), (2) a Double-blind Treatment period (56 weeks), and (3) a Safety Follow-up (24 weeks) Period (FIG. 8). The Screening Period included a Washout Period (lasting 2-32 days) if required, and an Initial Pain Assessment Period (IPAP) (5 days prior to Randomization/Baseline; minimum 4 days).
The Safety analysis set included all patients who received at least one dose of SC study treatment. This analysis set was primary for all safety endpoints, which were analyzed according to treatment received, and was labeled as the ‘Safety population’. In this study, the ITT and Safety analysis sets were identical.

[5] = test system: low back pain; conditions: 500 mg BID; prior study; cited from earlier work
[6] = 100 mg BID, 56-week treatment period

COc1cccc(C2(O)CCCCC2CN(C)C)c1 (stereo not drawn) [Tramadol PR, tramadol, reference compound]
LBPI change from Baseline to Week 2, Difference vs. plc [1]: −0.19
LBPI change from Baseline to Week 16, LS Mean [1]: −2.81
Proportion of patients with ≥50% improvement in LBPI at Week 16 [1]: (42.8) %
RMDQ change from Baseline to Week 16, Difference vs. plc [1]: −0.26
RMDQ change from Baseline to Week 16, LS Mean [1]: −5.21
percentage of patients achieving ≥30% improvement in LBPI at week 16 [1]: 57.9%
≥30% improvement in LBPI at week 16, odds ratio versus placebo [1]: 1.08
≥50% improvement in LBPI at Week 16, OR vs. plc [1]: 1.25
incidence of composite joint safety endpoint ([2]; 100-300 mg daily oral): 0.2%
observation-time adjusted rate of composite joint safety endpoint ([2]; 100-300 mg daily oral): 1.9 events/1000 patient-years
patients with joint safety event adjudicated to RPOA Type 1 ([2]; 100-300 mg daily oral): 0.2%
patients with joint safety event adjudicated to RPOA Type 1, number ([2]; 100-300 mg daily oral): 1 patients
patients with adjudicated event of RPOA ([2]; tramadol PR-treated patients): 0.2%
patients with joint safety event requiring adjudication ([2]; tramadol PR-treated patients, 80-week observation period): 0.7%

Cc1ccc(-c2cc(C(F)(F)F)nn2-c2ccc(S(N)(=O)=O)cc2)cc1 [celecoxib]
Proportion of Patients with ≥50% Improvement in LBPI at Week 16 (Mixed BOCF/LOCF) [3]: (32.6%)
Change from Baseline to Week 16 in LBPI (Multiple Imputation), LS Mean ([3]; ITT): −2.28
Change from Baseline to Week 16 in RMDQ (Multiple Imputation), LS Mean ([3]; ITT): −3.84
frequency of adverse events of potential sympathetic dysfunction ([4]; 100 mg BID): 7.6%
incidence of composite joint safety endpoint ([4]; 100 mg BID): 0%
observation-time adjusted rate of composite joint safety endpoint ([4]; 100 mg BID): 0 event/1000 patient-years
patients who met criteria for adjudication of a joint safety event, number ([4]; 100 mg BID): 1 patient
incidence of serious adverse events [4, 6]: 2.2%
overall incidence of adverse events [4, 6]: 67.4%
Composite Joint Safety Endpoint, n (%) ([4]; 100 mg BID, during the study): 0 n (%)
Pathological Fracture, n (%) ([4]; 100 mg BID, during the study): 0 n (%)
Patients analyzed by the Adjudication Committee, n (%) ([4]; 100 mg BID, during the study): 1 (1.1%) n (%)
Patients with Only Normal Progression of OA, n (%) ([4]; 100 mg BID, during the study): 0 n (%)
Patients with Other Joint Outcome, n (%) ([4]; 100 mg BID, during the study): 1 (1.1%) n (%)
Primary Osteonecrosis, n (%) ([4]; 100 mg BID, during the study): 0 n (%)
RPOA type 1, n (%) ([4]; 100 mg BID, during the study): 0 n (%)
RPOA type 2, n (%) ([4]; 100 mg BID, during the study): 0 n (%)
RPOA, n (%) ([4]; 100 mg BID, during the study): 0 n (%)
Subchondral Insufficiency Fracture, n (%) ([4]; 100 mg BID, during the study): 0 n (%)
Arthralgia, number (%) of patients ([4]; 100 mg BID, treatment period): 6 (6.5) n (%)
Back pain, number (%) of patients ([4]; 100 mg BID, treatment period): 4 (4.3) n (%)
Contusion, number (%) of patients ([4]; 100 mg BID, treatment period): 2 (2.2) n (%)
Diarrhoea, number (%) of patients ([4]; 100 mg BID, treatment period): 3 (3.3) n (%)
Discontinued from study due to Adverse Event, number (%) of patients ([4]; 100 mg BID, treatment period): 0 n (%)
Discontinued study drug due to Adverse Event and continued study, number (%) of patients ([4]; 100 mg BID, treatment period): 4 (4.3) n (%)
Discontinued study drug due to Adverse Event, number (%) of patients ([4]; 100 mg BID, treatment period): 4 (4.3) n (%)
Fall, number (%) of patients ([4]; 100 mg BID, treatment period): 3 (3.3) n (%)
Gastroenteritis, number (%) of patients ([4]; 100 mg BID, treatment period): 3 (3.3) n (%)
Headache, number (%) of patients ([4]; 100 mg BID, treatment period): 2 (2.2) n (%)
Hypertension, number (%) of patients ([4]; 100 mg BID, treatment period): 3 (3.3) n (%)
Hypoaesthesia, number (%) of patients ([4]; 100 mg BID, treatment period): 3 (3.3) n (%)
Intervertebral disc protrusion, number (%) of patients ([4]; 100 mg BID, treatment period): 3 (3.3) n (%)
Musculoskeletal pain, number (%) of patients ([4]; 100 mg BID, treatment period): 3 (3.3) n (%)
Myalgia, number (%) of patients ([4]; 100 mg BID, treatment period): 1 (1.1) n (%)
Nasopharyngitis, number (%) of patients ([4]; 100 mg BID, treatment period): 6 (6.5) n (%)
Pain in extremity, number (%) of patients ([4]; 100 mg BID, treatment period): 3 (3.3) n (%)
Pneumonia, number (%) of patients ([4]; 100 mg BID, treatment period): 1 (1.1) n (%)
Pyrexia, number (%) of patients ([4]; 100 mg BID, treatment period): 4 (4.3) n (%)
Serious Adverse Event, number (%) of patients ([4]; 100 mg BID, treatment period): 2 (2.2) n (%)
Severe Adverse Event, number (%) of patients ([4]; 100 mg BID, treatment period): 1 (1.1) n (%)
frequency of adverse events of abnormal peripheral sensation ([4]; 100 mg BID, treatment period): 4.3%
incidence of discontinuations from treatment due to an adverse event ([4]; 100 mg BID, treatment period): 4.3%
Adverse Event, number (%) of patients ([4]; 100 mg BID, treatment period, all causalities): 62 (67.4) n (%)
patients who met criteria for adjudication of joint safety outcome ([4]; celecoxib-treated patients, 80-week observation period): 1.1%

COc1ccc2cc([C@H](C)C(=O)O)ccc2c1 [naproxen]
LBPI endpoints relative to placebo [5]: significant differences relative to placebo
RMDQ endpoint relative to placebo [5]: not the RMDQ endpoint
